pIC50: −log10 of the molar value. Bounds are passed on as bounds.

One test concerns the target T1, recombinant human ULK1 protein (1-649) (Homo sapiens, UniProt O75385).
T1 construct: recombinant human ULK1 protein (1-649, SignalChem #U01-11G); purchased SignalChem U01-11G
T1 sequence (O75385 1-649): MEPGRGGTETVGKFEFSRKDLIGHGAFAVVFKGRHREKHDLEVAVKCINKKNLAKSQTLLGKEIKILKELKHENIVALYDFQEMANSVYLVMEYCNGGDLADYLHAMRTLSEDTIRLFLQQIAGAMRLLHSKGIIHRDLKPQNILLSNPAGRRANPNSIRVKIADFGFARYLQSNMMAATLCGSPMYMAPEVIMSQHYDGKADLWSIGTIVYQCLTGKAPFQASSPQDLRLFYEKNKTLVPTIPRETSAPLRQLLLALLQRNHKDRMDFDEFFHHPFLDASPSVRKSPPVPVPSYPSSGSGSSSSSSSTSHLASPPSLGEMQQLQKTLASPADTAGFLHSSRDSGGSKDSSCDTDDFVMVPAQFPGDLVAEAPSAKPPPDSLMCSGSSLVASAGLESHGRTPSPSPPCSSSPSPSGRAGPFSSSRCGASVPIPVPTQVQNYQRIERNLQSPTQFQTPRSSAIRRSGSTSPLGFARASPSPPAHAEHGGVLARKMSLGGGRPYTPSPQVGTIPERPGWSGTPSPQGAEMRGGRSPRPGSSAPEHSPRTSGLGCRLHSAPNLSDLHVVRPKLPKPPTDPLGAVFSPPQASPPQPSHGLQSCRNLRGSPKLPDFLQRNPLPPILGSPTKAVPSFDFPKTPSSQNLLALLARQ
The test can be described thus: ULK1 inhibition assay (ADP Glo). It counts as biochemical. To be noted: Table 1; 25 uM ATP, MBP substrate, one hour. Summed up: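 Recombinant ULK1 (2 ug/mL) phosphorylated myelin basic protein (80 ug/mL) at 25 uM ATP; ADP formed was detected by ADP-Glo after 1 h. Compounds ran in triplicate, 16-dose 3-fold serial dilution from 30 uM, to give IC50.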
In general terms: ADP-Glo first removes unused ATP, then detects ADP through luciferase.
The pIC50 is the negative decadic logarithm of the IC50, by convention in mol/L. For `COCCN1CCc2ccc(Nc3ncc(C(F)(F)F)c(NC4CC4)n3)cc2C1` [Compound A86], the pIC50 was above 9.00. As to `CC(=O)CCN1CCc2cc(Nc3ncc(C(F)(F)F)c(NC4CC4)n3)ccc2C1` [Compound A56], the pIC50 was above 9.00. Regarding `CNC(=O)c1ccccc1Nc1nc(Nc2ccc3c(c2)CN(C(=O)CCC(=O)O)CC3)ncc1Br` [Compound A156, 4-{7-[5-Bromo-4-(2-methylcarbamoyl-phenylamino)-pyrimidin-2-ylamino]-3,4-dihydro-1H-isoquinolin-2-yl}-4-oxo-butyric acid], the pIC50 is below 8.00. Turning to `CC(C)(C)OC(=O)N1CCc2cc(Nc3ncc(N)c(NC4CC4)n3)ccc2C1` [Compound A22], the pIC50 was below 8.00. The same measure, in the same setting: for `CNC(=O)c1ccccc1Nc1nc(Nc2ccc3c(c2)CCN(C(=O)CCC(=O)O)C3)ncc1Br` [Compound A134, 4-{6-[5-Bromo-4-(2-methylcarbamoyl-phenylamino)-pyrimidin-2-ylamino]-3,4-dihydro-1H-isoquinolin-2-yl}-4-oxo-butyric acid] the value was below 8.00. Consider `CNC(=O)c1ccccc1Nc1nc(Nc2ccc3c(c2)CCN(C(=O)N2CCN(C)CC2)C3)ncc1Br` [Compound A128, 2-{5-Bromo-2-[2-(4-methyl-piperazine-1-carbonyl)-1,2,3,4-tetrahydro-isoquinolin-6-ylamino]-pyrimidin-4-ylamino}-N-methyl-benzamide], for which the pIC50 is below 8.00. Regarding `FC(F)(F)c1cnc(Nc2ccc3c(c2)CCN(Cc2ccncn2)C3)nc1NC1CC1` [Compound A75], the pIC50 was above 9.00.

On to `FC(F)(F)c1cnc(Nc2ccc3c(c2)CCN(CC2OCCO2)C3)nc1NC1CC1` [Compound A17], for which the pIC50 is above 9.00. Take `FC(F)(F)c1cnc(Nc2ccc3c(c2)CN(Cc2cncnc2)CC3)nc1NC1CC1` [Compound A108]: the pIC50 is above 9.00. Consider `COCCN1CCc2cc(Nc3ncc(C(F)(F)F)c(NC4CC4)n3)ccc2C1` [Compound A50], for which the negative-log IC50 (pIC50) is above 9.00. On to `CNC(=O)c1ccccc1Nc1nc(Nc2ccc3c(c2)CCN(CCC(=O)O)C3)ncc1Br` [Compound A141, 3-{6-[5-Bromo-4-(2-methylcarbamoyl-phenylamino)-pyrimidin-2-ylamino]-3,4-dihydro-1H-isoquinolin-2-yl}-propionic acid], for which the negative-log IC50 (pIC50) was below 8.00. In the case of `NCC(=O)N1CCc2ccc(Nc3ncc(C(F)(F)F)c(NC4CC4)n3)cc2C1` [Compound A83], the pIC50 is 8.00 to 9.00. As to `O=C(N1CCOCC1)N1CCc2cc(Nc3ncc(C(F)(F)F)c(NC4CC4)n3)ccc2C1` [Compound A2], the pIC50 is 8.00 to 9.00.

As to `NC(=O)CN1CCc2cc(Nc3ncc(C(F)(F)F)c(NC4CC4)n3)ccc2C1` [Compound A39], the pIC50 was below 8.00. Consider `FC(F)(F)c1cnc(Nc2ccc3c(c2)CCN(Cc2ccco2)C3)nc1NC1CC1` [Compound A46], for which the pIC50 is above 9.00. On the same count and under the same terms, for `CNC(=O)c1ccccc1Nc1nc(Nc2ccc3c(c2)CCN(CC(C)O)C3)ncc1Br` (centres unmarked) [Compound A138, 2-{5-Bromo-2-[2-(2-hydroxy-propyl)-1,2,3,4-tetrahydro-isoquinolin-6-ylamino]-pyrimidin-4-ylamino}-N-methyl-benzamide] the value was below 8.00.

As to `CNC(=O)c1ccccc1Nc1nc(Nc2ccc3c(c2)CN(CC(=O)N2CCOCC2)CC3)ncc1Br` [Compound A148, 2-{5-Bromo-2-[2-(2-morpholin-4-yl-2-oxo-ethyl)-1,2,3,4-tetrahydro-isoquinolin-7-ylamino]-pyrimidin-4-ylamino}-N-methyl-benzamide], the pIC50 is below 8.00.

For the compound `N[C@H](CO)C(=O)N1CCc2cc(Nc3ncc(C(F)(F)F)c(NC4CC4)n3)ccc2C1` (stereo in doubt) [Compound A48], the pIC50 was above 9.00. Turning to `CN1CCc2cc(Nc3ncc(C(F)(F)F)c(NC4CC4)n3)ccc2C1` [Compound A1], the pIC50 is above 9.00. Same read-out and setting: for `CNC(=O)c1ccccc1Nc1nc(Nc2ccc3c(c2)CCN(Cc2ccncc2)C3)ncc1Br` [Compound A131, 2-[5-Bromo-2-(2-pyridin-4-ylmethyl-1,2,3,4-tetrahydro-isoquinolin-6-ylamino)-pyrimidin-4-ylamino]-N-methyl-benzamide] the value was below 8.00; for `CNCC(=O)N1CCc2cc(Nc3ncc(C(F)(F)F)c(NC4CC4)n3)ccc2C1` [Compound A35], above 9.00; for `O=C(C1CCN1)N1CCc2cc(Nc3ncc(C(F)(F)F)c(NC4CC4)n3)ccc2C1` (centres unmarked) [Compound A90], 8.00 to 9.00.

With `CCN(CC)C(=O)N1CCc2cc(Nc3ncc(C(F)(F)F)c(NC4CC4)n3)ccc2C1` [Compound A10], the negative logarithm of the IC50 (pIC50) was 8.00 to 9.00.

Staying with this test, now noted: Table 2.
With `COC(=O)c1ccccc1Oc1nc(Nc2ccc(N3CCCC3)cc2)ncc1Br` [Compound B27], the pIC50 is below 6.00. As to `COc1cc(Nc2ncc(Br)c(Oc3ccccc3C(=O)N(C)O)n2)cc(OC)c1OC` [Compound B15], the pIC50 is above 7.00.

Take `COC(=O)c1ccccc1Oc1ncnc(Nc2cc(OC)c(OC)c(OC)c2)n1` [Compound B48]: the pIC50 is below 6.00. `COC(=O)c1ccccc1Oc1nc(Nc2cc(F)c(OC)c(F)c2)ncc1Br` [Compound B34]: the pIC50 was below 6.00. Regarding `COC(=O)c1ccccc1Oc1nc(Nc2cccc(C(F)(F)F)c2)ncc1Br` [Compound B28], the negative-log IC50 (pIC50) was below 6.00.

As to `COC(=O)c1ccccc1Oc1nc(Nc2ccc3[nH]ncc3c2)ncc1Br` [Compound B26], the negative-log IC50 (pIC50) is 6.00 to 7.00. Regarding `COC(=O)c1ccccc1Oc1nc(Nc2ccc3occc3c2)ncc1Br` [Compound B35], the negative-log IC50 (pIC50) is below 6.00. `COC(=O)CN(C)C(=O)c1ccccc1Oc1nc(Nc2cc(OC)c(OC)c(OC)c2)ncc1Br` [Compound B5]: the pIC50 is 6.00 to 7.00.

On to `COc1cc(Nc2ncc(Br)c(Oc3ccccc3C(=O)N3CCC3)n2)cc(OC)c1OC` [Compound B50], for which the pIC50 is below 6.00.

Still in this test, the particulars now being: Table 3.
Regarding `CNC(=O)c1ccccc1Nc1cc(C#N)nc(Nc2cc(OC)c(OC)c(OC)c2)n1` [Compound E8, 2-((6-Cyano-2-((3,4,5-trimethoxyphenyl)amino)pyrimidin-4-yl)amino)-N-methylbenzamide], the pIC50 was below 7.00.

`CN(C)C1Cc2ccc(Nc3ncc(C(F)(F)F)c(NC4CC4)n3)cc2C1` (centres unmarked) [Compound D6]: the pIC50 is above 8.30. Turning to `COCc1ccccc1Nc1nc(Nc2cc(OC)c(OC)c(OC)c2)ncc1Br` [Compound C2], the pIC50 was above 8.30.

In the case of `COc1cc(Oc2ncc(Br)c(Nc3ccccc3CO)n2)cc(OC)c1OC` [Compound C10], the pIC50 was below 7.00. Consider `COc1cc(Nc2ncc(Br)c(Nc3ccc(NC(=O)C4(C(=O)Nc5ccc(F)cc5)CC4)cc3F)n2)cc(OC)c1OC` [Compound E28, N-(4-((5-Bromo-2-((3,4,5-trimethoxyphenyl)amino)pyrimidin-4-yl)amino)-3-fluorophenyl)-N-(4-fluorophenyl)cyclopropane-1,1-dicarboxamide], for which the pIC50 is below 7.00. On to `NCCCNc1ncc(Br)c(Nc2ccccc2CO)n1` [Compound C15], for which the pIC50 is below 7.00. With `CNC(=O)c1ccccc1Nc1nc(Nc2ccc(OC(F)F)cc2)ncc1Br` [Compound E18, 2-((5-Bromo-2-((4-(difluoromethoxy)phenyl)amino)pyrimidin-4-yl)amino)-N-methylbenzamide], the pIC50 is below 7.00. Take `COc1ccc(Nc2ncc(Br)c(Nc3ccccc3CO)n2)cc1` [Compound C5]: the pIC50 is 7.00 to 8.30. Regarding `COc1cc(Nc2ncc(Br)c(Nc3ccccc3CN(CCO)CCO)n2)cc(OC)c1OC` [Compound C27], the pIC50 is 7.00 to 8.30.

The values above are taken from patent publication US20230135635A1, “INHIBITORS OF ULK1/2 AND METHODS OF USING SAME” (SALK INSTITUTE FOR BIOLOGICAL STUDIES, priority 2020, published 2023).
